Results as given in PubChem BioAssay AID288 (DTP/NCI, 2004).
Records with an inconclusive call do not appear.

System: BDF1 mice, M5076 sarcoma s.c., survival/tumor T/C
Assay: NCI In Vivo Anticancer Drug Screen. Data for tumor model Sarcoma M5076 (subcutaneous) in B6D2F1 (BDF1) mice
Description: The antitumor activity of compounds was measured in mice bearing transplantable tumors. Survival or tumor size were measured and the results are expressed as the measurement made in the treated group (T) divided by the measurement made in the vehicle treated control group (C). The tumor model used in this assay is Sarcoma M5076 (subcutaneous) in B6D2F1 (BDF1) mice

[1] = endpoint: median survival time, dose: 50.0 mg/kg/injection, schedule: Q01DX009 (ip), vehicle: saline with Tween-80, higher = longer survival
[2] = endpoint: median survival time, dose: 100.0 mg/kg/injection, schedule: Q01DX009 (ip), vehicle: saline with Tween-80, higher = longer survival
[3] = endpoint: median survival time, dose: 200.0 mg/kg/injection, schedule: Q01DX009 (ip), vehicle: saline with Tween-80, higher = longer survival
[4] = endpoint: median tumor weight (est.), dose: 50.0 mg/kg/injection, schedule: Q01DX009 (ip), vehicle: saline with Tween-80, higher = larger tumour
[5] = endpoint: median tumor weight (est.), dose: 200.0 mg/kg/injection, schedule: Q01DX009 (ip), vehicle: saline with Tween-80, higher = larger tumour
[6] = endpoint: median tumor weight (est.), dose: 100.0 mg/kg/injection, schedule: Q01DX009 (ip), vehicle: saline with Tween-80, higher = larger tumour

Row | SMILES | T/C [1] | T/C [2] | T/C [3] | T/C [4] | T/C [5] | T/C [6] | other results
1 | Nc1ncn(C2OC(CO)C(O)C2O)c(=O)n1 (stereo not given) | – | – | – | – | – | – | T/C (endpoint: median survival time, dose: 0.6 mg/kg/injection, schedule: Q04DX009 (ip), vehicle: saline, higher = longer survival): 106 % of control; T/C (endpoint: median survival time, dose: 1.2 mg/kg/injection, schedule: Q04DX009 (ip), vehicle: saline, higher = longer survival): 112 % of control; T/C (endpoint: median survival time, dose: 2.4 mg/kg/injection, schedule: Q04DX009 (ip), vehicle: saline, higher = longer survival): 113 % of control; T/C (endpoint: median survival time, dose: 4.8 mg/kg/injection, schedule: Q04DX009 (ip), vehicle: saline, higher = longer survival): 111 % of control
2 | COc1cc(C(C)(C)C)cc(OC)c1C(O)(c1c(OC)cc(C(C)(C)C)cc1OC)c1c(OC)cc(C(C)(C)C)cc1OC | – | – | – | – | – | – | T/C (endpoint: median survival time, dose: 50.0 mg/kg/injection, schedule: Q04DX003 (ip), vehicle: saline with Tween-80, higher = longer survival): 95 % of control; T/C (endpoint: median survival time, dose: 100.0 mg/kg/injection, schedule: Q04DX003 (ip), vehicle: saline with Tween-80, higher = longer survival): 102 % of control
3 | Nc1ccc(N2N=C(N3CCCC3)CC2=O)cc1 | 100 % of control | 99 % of control | 94 % of control | 112 % of control | 80 % of control | – | –
4 | O=C[C@@H](CO)O[C@H](C=O)n1cnc2c(=O)[nH]cnc21 | – | – | – | – | – | – | T/C (endpoint: mean tumor weight, dose: 75.0 mg/kg/injection, schedule: Q02DX011 (ip), vehicle: saline, higher = larger tumour): 93 % of control; T/C (endpoint: mean tumor weight, dose: 150.0 mg/kg/injection, schedule: Q02DX011 (ip), vehicle: saline, higher = larger tumour): 105 % of control; T/C (endpoint: mean tumor weight, dose: 300.0 mg/kg/injection, schedule: Q02DX011 (ip), vehicle: saline, higher = larger tumour): 54 % of control; T/C (endpoint: median tumor weight (est.), dose: 75.0 mg/kg/injection, schedule: Q02DX011 (ip), vehicle: saline, higher = larger tumour): 376 % of control; T/C (endpoint: median tumor weight (est.), dose: 150.0 mg/kg/injection, schedule: Q02DX011 (ip), vehicle: saline, higher = larger tumour): 385 % of control; T/C (endpoint: median tumor weight (est.), dose: 300.0 mg/kg/injection, schedule: Q02DX011 (ip), vehicle: saline, higher = larger tumour): 266 % of control
5 | CC1(C)OC(C)(C)c2c1nnc(-c1ccccc1[N+](=O)[O-])[n+]2[O-] | 108 % of control | 99 % of control | 103 % of control | 70 % of control | 67 % of control | 110 % of control | –
6 | CNC(=O)c1ccccc1C1(O)c2ccccc2CCc2ccccc21 | 109 % of control | – | 100 % of control | – | – | – | –
7 | COc1cccc(/C=N/NP(=S)(Oc2ccc(C(C)(C)C)cc2)Oc2ccc(C(C)(C)C)cc2)c1OC | 94 % of control | 94 % of control | 100 % of control | 122 % of control | 74 % of control | 100 % of control | –
8 | COc1ccc(/C=C2\SC(=S)N(C3CC3)C2=O)cc1OC | 95 % of control | 93 % of control | 100 % of control | 90 % of control | 79 % of control | 88 % of control | –
9 | CC1(C)OC(C)(C)c2c1nnc(-c1cccc([N+](=O)[O-])c1)[n+]2[O-] | 110 % of control | 113 % of control | 113 % of control | 91 % of control | 97 % of control | 119 % of control | –
10 | COc1ccc(/C=N/NC(=O)C(=O)Nc2ccc(Cl)c([N+](=O)[O-])c2)cc1OC | 97 % of control | 88 % of control | 97 % of control | 96 % of control | 86 % of control | 90 % of control | –
11 | CS(=O)(=O)OCCCCOS(C)(=O)=O | – | – | – | – | – | – | T/C (endpoint: mean tumor weight, dose: 15.0 mg/kg/injection, schedule: Q02DX011 (ip), vehicle: Klucel (hydroxypropylcellulose) (HPC), higher = larger tumour): 56 % of control
